Reference: patent US9890147B2 (BAYER PHARMA AKTIENGESELLSCHAFT, priority 2012, dated 2018)
pIC50: −log10 of the molar value.

Target: T1, BRD4 (BD1) (Homo sapiens, UniProt O60885)
T1 construct: with relatively long constructs also being possible, preferably amino acids 44-168; made in house; host or cells: E. coli
Assay: Binding assay BRD4/acetylated peptide H4 (TR-FRET protein-protein interaction assay)
Description: Binding Assay BRD4/Acetylated Peptide H4 (“PRO”)
To assess the BRD4 binding of the substances described in the present application, their ability to inhibit the interaction between BRD4 (BD1) and acetylated histone H4 in a dose-dependent manner was quantified (Filippakopoulos et al., Cell, 2012, 149: 214-231).
For this purpose, use was made of a time-resolved fluorescence resonance energy transfer (TR-FRET) assay which measured binding between N-terminally His6-tagged BRD4 (BD1) (amino acids 67-152, with relatively long constructs also being possible, preferably amino acids 44-168) and a synthetic acetylated histone H4 (Ac—H4) peptide having the sequence GRGK(Ac)GGK(Ac)GLGK(Ac)GGAK(Ac)RHGSGSK-biotin. The recombinant BRD4 protein-produced according to Filippakopoulos et al., Cell, 2012, 149: 214-231—was expressed in E. coli and purified by (Ni-NTA) affinity and (Sephadex G-75) size exclusion chromatography. The Ac—H4 peptide is commercially available, for example from Biosyntan (Berlin, Germany). In a typical assay, 11 different concentrations of each substance (0.1 nM, 0.33 nM, 1.1 nM, 3.8 nM, 13 nM, 44 nM, 0.15 μM, 0.51 μM, 1.7 μM, 5.9 μM and 20 μM) were measured in duplicate on the same microtitre plate. To this end, 100-fold concentrated solutions in DMSO were prepared by serial dilution (1:3.4) of a 2 mM stock solution in a clear 384-well microtitre platte (Greiner Bio-One, Frickenhausen, Germany) 50 nl of these were transferred into a black test plate (Greiner Bio-One, Frickenhausen, Germany). The test was started by addition of 2 μl of a 2.5-fold concentrated BRD4 solution (final concentration usually 10 nM in the […] of the reaction volume) in aqueous assay buffer [50 mM HEPES pH 7.5. 50 mM sodium chloride (NaCl), 0.25 mM CHAPS and 0.05% serum albumin (BSA)] to the substances in the test plate. This was followed by a 10-minute incubation step at 22° C. to pre-equilibrate putative complexes between BRD4 and the substances.
The mixture was then incubated in the dark for one hour at 22° C. and then for at least 3 hours and at most overnight at 4° C. Formation of BRD4/Ac—H4 complexes was determined by measuring the resonance energy transfer from the streptavidin-Eu cryptate to the anti-6His-XL665 antibody in the reaction. To this end, the fluorescence emission was measured at 620 nm and 665 nm after excitation at 330-350 nm in a TR-FRET measuring device, for example a Rubystar or Pherastar (both from BMG Lab Technologies, Offenburg, Germany) or a Viewlux (Perkin-Elmer). The ratio of the emission at 665 nm and at […] was used as an indicator for the amount of BRD4/Ac—H4 complexes formed.
The data obtained (ratios) were normalized, with 0% inhibition corresponding to the mean of the measured values of a set of controls (usually 32 data points) comprising all reagents. Here, 50 nl of DMSO (100%) were used instead of test substances. An inhibition of 100% corresponded to the mean of the measured values of a set of controls (usually 32 data points) comprising all reagents except for BRD4. The IC50 was determined by regression analysis based on a 4-parameter equation (minimum, maximum, IC50, Hill; Y=Max+(Min−Max)/(1+(X/IC 50)^Hill)).

Structure (SMILES)	pIC50
CNC(=O)N1N=C(c2ccc(-c3ccccc3C(=O)O)cc2)c2cc(OC)c(OC)cc2CC1C (racemic) [Example 6, (±)-4′-{7,8-dimethoxy-4-methyl-3-[(methylamino)carbonyl]-4,5-dihydro-3H-2,3-benzodiazepin-1-yl}biphenyl-2-carboxylic acid]	6.04
CNC(=O)N1N=C(c2ccc(N3CCC(CCO)CC3)cc2)c2cc(OC)c(OC)cc2CC1C (racemic) [Example 183, (±)-1-{4-[4-(2-hydroxyethyl)piperidin-1-yl]phenyl}-7,8-dimcthoxy-N,4-dimethyl-4,5-dihydro-3H-2,3-benzodiazepine-3-carboxamide]	7.40
CNC(=O)N1N=C(c2ccc(N3CCC(=O)CC3)cc2)c2cc(OC)c(OC)cc2CC1C (racemic) [Example 196, (±)-7,8-dimethoxy-N,4-dimethyl-1-[4-(4-oxopiperidin-1-yl)phenyl]-4,5-dihydro-3H-2,3-benzodiazepine-3-carboxamide]	7.05
CNC(=O)N1N=C(c2ccc(N3CCN(CC(F)(F)F)CC3)cc2)c2cc(OC)c(OC)cc2CC1C (racemic) [Example 197, (±)-7,8-dimethoxy-N,4-dimethyl-1-{4-[4-(2,2,2-trifluoroethyl)piperazin-1-yl]phenyl}-4,5-dihydro-3H-2,3-benzodiazepine-3-carboxamide]	7.10
CNC(=O)N1N=C(c2ccc(N3CCN(C)CC3)cc2)c2cc(O)c(O)cc2CC1C (racemic) [Example 199, (±)-7,8-Dihydroxy-N,4-dimethyl-1-[4-(4-methylpiperazin-1-yl)phenyl]-4,5-dihydro-3H-2,3-benzodiazepine-3-carboxamide]	5.99
CCC1Cc2cc(OC)c(OC)cc2C(c2ccc(N3CCN(C)CC3)cc2)=NN1C(=O)NC (racemic) [Example 201, (±)-4-ethyl-7,8-dimethoxy-N-methyl-1-[4-(4-methylpiperazin-1-yl)phenyl]-4,5-dihydro-3H-2,3-benzodiazepine-3-carboxamide]	5.86
CCC1Cc2cc(OC)c(OC)cc2C(c2ccc(N3CCNCC3)cc2)=NN1C(=O)NC (racemic) [Example 202, (±)-4-ethyl-7,8-dimethoxy-N-methyl-1-[4-(piperazin-1-yl)phenyl]-4,5-dihydro-3H-2,3-benzodiazepine-3-carboxamide]	5.91
CCC1Cc2cc(OC)c(OC)cc2C(c2ccc(N3CC(F)C3)cc2)=NN1C(=O)NC (racemic) [Example 204, (±)-4-ethyl-1-[4-(3-fluoroazetidin-1-yl)phenyl]-7,8-dimethoxy-N-methyl-4,5-dihydro-3H-2,3-benzodiazepine-3-carboxamide]	5.91
CCC1Cc2cc(OC)c(OC)cc2C(c2ccc(N3CCN(C(C)=O)CC3)cc2)=NN1C(=O)NC (racemic) [Example 205, (±)-1-[4-(4-acetylpiperazin-1-yl)phenyl]-4-ethyl-7,8-dimethoxy-N-methyl-4,5-dihydro-3H-2,3-benzodiazepine-3-carboxamide]	5.97
CCC1Cc2cc(OC)c(OC)cc2C(c2ccc(N3CCS(=O)(=O)CC3)cc2)=NN1C(=O)NC (racemic) [Example 206, (±)-1-[4-(1,1-dioxidothiomorpholin-4-yl)phenyl]-4-ethyl-7,8-dimethoxy-N-methyl-4,5-dihydro-3H-2,3-benzodiazepine-3-carboxamide]	6.03
CCC1Cc2cc(OC)c(OC)cc2C(c2ccc(N3CCC(O)CC3)cc2)=NN1C(=O)NC (racemic) [Example 207, (±)-4-ethyl-1-[4-(4-hydroxypiperidin-1-yl)phenyl]-7,8-dimethoxy-N-methyl-4,5-dihydro-3H-2,3-benzodiazepine-3-carboxamide]	5.91
CCC1Cc2cc(OC)c(OC)cc2C(c2ccc(N3CCOCC3)cc2)=NN1C(=O)NC (racemic) [Example 208, (±)-4-ethyl-7,8-dimethoxy-N-methyl-1-[4-(morpholin-4-yl)phenyl]-4,5-dihydro-3H-2,3-benzodiazepine-3-carboxamide]	5.96
CNC(=O)N1N=C(c2ccc(N3CCNCC3)cc2)c2cc(Cl)c(OC(F)(F)F)cc2CC1C (racemic) [Example 211, (±)-8-chloro-N,4-dimethyl-1-[4-(piperazin-1-yl)phenyl]-7-(trifluoromethoxy)-4,5-dihydro-3H-2,3-benzodiazepine-3-carboxamide]	6.52
CNC(=O)N1N=C(c2ccc(N3CCN(S(C)(=O)=O)CC3)cc2)c2cc(Cl)c(OC(F)(F)F)cc2CC1C (racemic) [Example 214, (±)-8-chloro-N,4-dimethyl-1-{4-[4-(methylsulphonyl)piperazin-1-yl]phenyl}-7-(trifluoromethoxy)-4,5-dihydro-3H-2,3-benzodiazepine-3-carboxamide]	5.91
CNC(=O)N1N=C(c2ccc(N3CCN(C(C)=O)CC3)cc2)c2ccc(OC(F)(F)F)cc2CC1C (racemic) [Example 217, (±)-1-[4-(4-acetylpiperazin-1-yl)phenyl]-N,4-dimethyl-7-(trifluoromethoxy)-4,5-dihydro-3H-2,3-benzodiazepine-3-carboxamide]	5.76
CCC1Cc2cc(OC)c(OC)cc2C(c2ccc(-c3ccc(F)cc3)cc2)=NN1C(=O)NC (racemic) [Example 221, (±)-4-ethyl-1-(4′-fluorobiphenyl-4-yl)-7,8-dimethoxy-N-methyl-4,5-dihydro-3H-2,3-benzodiazepine-3-carboxamide]	5.70
CCC1Cc2cc(OC)c(OC)cc2C(c2ccc(-c3c(C)noc3C)cc2)=NN1C(=O)NC (racemic) [Example 223, (±)-1-[4-(3,5-dimethyl-1,2-oxazol-4-yl)phenyl]-4-ethyl-7,8-dimethoxy-N-methyl-4,5-dihydro-3H-2,3-benzodiazepine-3-carboxamide]	6.49
CNC(=O)N1N=C(c2ccc(-c3c(C)nn(C)c3C)cc2)c2cc(OC)c(OC)cc2CC1C(C)C (racemic) [Example 224, (±)-4-isopropyl-7,8-dimethoxy-N-methyl-1-[4-(1,3,5-trimethyl-1H-pyrazol-4-yl)phenyl]-4,5-dihydro-3H-2,3-benzodiazepine-3-carboxamide]	5.11
CCC1Cc2cc(OC)c(OC)cc2C(c2ccc(N3CCCC3=O)cc2)=NN1C(=O)NC (racemic) [Example 225, (±)-4-ethyl-7,8-dimethoxy-N-methyl-1-[4-(2-oxopyrrolidin-1-yl)phenyl]-4,5-dihydro-3H-2,3-benzodiazepine-3-carboxamide]	5.76
CCC1Cc2cc(OC)c(OC)cc2C(c2ccc(N3CCOCC3=O)cc2)=NN1C(=O)NC (racemic) [Example 226, (±)-4-ethyl-7,8-dimethoxy-N-methyl-1-[4-(3-oxomorpholin-4-yl)phenyl]-4,5-dihydro-3H-2,3-benzodiazepine-3-carboxamide]	5.06
CCC1Cc2cc(OC)c(OC)cc2C(c2ccc(N3CCCCC3=O)cc2)=NN1C(=O)NC (racemic) [Example 227, (±)-4-ethyl-7,8-dimethoxy-N-methyl-1-[4-(2-oxopiperidin-1-yl)phenyl]-4,5-dihydro-3H-2,3-benzodiazepine-3-carboxamide]	5.20
CCC1Cc2cc(OC)c(OC)cc2C(c2ccc(N3CCOC3=O)cc2)=NN1C(=O)NC (racemic) [Example 228, (±)-4-ethyl-7,8-dimethoxy-N-methyl-1-[4-(2-oxo-1,3-oxazolidin-3-yl)phenyl]-4,5-dihydro-3H-2,3-benzodiazepine-3-carboxamide]	5.77
CNC(=O)N1N=C(c2ccc(Cl)cc2)c2ccc(N3CCCCC3=O)cc2CC1C (racemic) [Example 231, (±)-1-(4-chlorophenyl)-N,4-dimethyl-7-(2-oxopiperidin-1-yl)-4,5-dihydro-3H-2,3-benzodiazepine-3-carboxamide]	5.47
CNC(=O)N1N=C(c2ccc(Cl)cc2)c2ccc(N3CCOCC3=O)cc2CC1C (racemic) [Example 232, (±)-1-(4-chlorophenyl)-N,4-dimethyl-7-(3-oxomorpholin-4-yl)-4,5-dihydro-3H-2,3-benzodiazepine-3-carboxamide]	5.55
